The values below come from patent US20140239525A1, “INHALABLE PHARMACEUTICAL COMPOSITIONS” (BOARD OF REGENTS, UNIVERSITY OF TEXAS SYSTEM, priority 2011, published 2014).

SMILES strings stand for the structures. Like-named read-outs stand apart in the source and are kept apart here.

A short description of data set [1]: CoQ10 in lung tissue of mice after 15 min nose-only aerosol dosing. Format: in vivo. The protocol:
(§1) Pulmonary Delivery to Mice: Animals were caged in groups of 4 and maintained on a normal rodent chow diet with free access to water. Prior to dosing, CD-1@ IGS ICR mice (Charles River Laboratories International, Inc., Wilmington, Mass., USA) were individually acclimatized for approximately 10 minutes per day for 3 days into restraint tubes, restricted by an anterior nose insert and a posterior holder. The dosing apparatus was placed inside a fume hood to collect escaping aerosol containing drug. To avoid influence from the airflow provided by the fume hood, an erlenmeyer container was placed at the end of the tubing system as a buffer. The airflow rate was set to 1 L/min to ensure proper drug aerosolization into the nose-only chamber (internal volume: 230 mL; diameter: 3.8 cm; length: 20.3 cm) using an Aeroneb Pro® vibrating-mesh nebulizer (Aerogen, Galway, Ireland). Following preparation, all formulations (saline control, DMPC, DPPC, and DSPC) were dosed for 15 minutes to mice weighing from 23 to 33 g each, at time of dosing. Each single-dose studied group consisted of thirty-six male animals. At each time point (0.5, 1, 3, 8, 24, and 48 hours after the end of the aerosolization event) six animals randomly selected from different dosing events of the same formulation were sacrificed by narcosis with carbon dioxide. As part of the collection process, blood was withdrawn by cardiac puncture, lungs were harvested, and a nasal wash was performed. The samples were extracted for analysis with liquid chromatography coupled with tandem mass spectrometry (LC/MS/MS).
Analysis of CoQ10 Levels in Lung Tissue, Blood Plasma, and Nasal Cavity: For each experiment, CoQ10 levels were determined after liquid extraction using liquid chromatography coupled with tandem mass spectrometry (LC-MS/MS). The methods were validated in the drug concentration range of 0.1 to 600 μg/mL. The general sample preparation protocols for lung tissue, blood plasma, and nasal cavity analysis are described below. […]

In data set [2] the test system is mice. Kind of data set: Survival and health of mice after aerosol dosing. To be noted: 48 hours after the end of the nebulization event. Format: in vivo. The protocol: as §1, with “As part of the collection process, blood was withdrawn by cardiac puncture, lungs were harvested, and a nasal wash was performed. The samples were extracted for analysis with liquid chromatography coupled with tandem mass spectrometry (LC/MS/MS).” left out

The conditions of data set [3]: solubilized oral formulations, cited from earlier work.
Data set [4] in a line: Particle size distribution by laser diffraction (LD). In kind it is physicochemical. The protocol: Laser Diffraction (LD): Bulk CoQ10 powder was dispersed in 20% (v/v) 1,3-propanediol in deionized water for analysis of particle size distribution. This dispersed sample was then added to a small cell apparatus in a Malvern Mastersizer S® instrument (Malvern Instruments, Worcestershire, UK) equipped with a 300 mm lens until 5-10% obscuration was attained. The internal phase and dispersant refractive indexes were 1.45 and 1.33, respectively.
(§2) Particle Size Distribution: Particle size distribution testing of the dispersed formulations was performed with LD using a wet sample dispersion unit stirring at 1,000 rpm coupled to a Malvern Spraytec® (Malvern Instruments, Worcestershire, UK) equipped with a 300 mm lens. The dispersed formulations were added to distilled water (dispersant) until approximately 5% laser obscuration was attained. The internal phase and dispersant refractive indexes were set as 1.45 and 1.33, respectively. A timed measurement was performed for 45 seconds with 1 second sampling periods (a total of 45 measurements). Results are presented as Dv(X) and span, where X is the cumulative percentile of particles under the referred size (e.g. Dv(50) corresponds to the median volume of the particles). Span is a measurement of particle size distribution calculated as [Dv(90)-Dv(10)]/Dv(50)]. A higher span indicates a more polydisperse particle size distribution.
as §2, with “5%” for “5% laser”, “were” for “were set as”, “45 data acquisition periods).” for “45 measurements).”, “is the” for “is a”, “as [Dv(90)−Dv(10)]/Dv(50)].” for “as [Dv(90)-Dv(10)]/Dv(50)].”

For data set [5], the system named is IL-12. Kind of data set: Inflammatory response: IL-12 in bronchoalveolar lavage supernatant by ELISA. Format: in vivo, mice. The method, then: The inflammatory response to the administration of hydrophobic bioactive agents (e.g., as discussed in connection with Example 1-3 above) was measured. Surgery is performed on sacrificed mice to expose the pleural cavity and trachea at the throat. […] An aliquot (about 0.75 mL) of phosphate buffered saline is instilled through the cannula into the lungs and removed to wash the bronchial and alveolar surfaces. This process is repeated for a total of three washes. The phosphate buffered saline containing cells is placed into centrifuge vials and centrifuged at about 3000 rpm (MiniSpin Plus, Eppendorf International, Hamburg, Del.). The supernatant is removed leaving the collected cells in the pellet. The supernatant from the BAL (Bronchoalveolar Lavage) is analyzed by enzyme-linked immunosorbent assay (ELISA) for IL-12 elevation (n=2 per sample tested).
(In general: An ELISA detects its analyte on a solid surface through an enzyme-linked reagent.)

[6] abbreviates: previous studies, same nebulizer.
Setting [7] is: after ball milling for 18 hours.

Regarding `COC1=C(OC)C(=O)C(C/C=C(\C)CC/C=C(\C)CC/C=C(\C)CC/C=C(\C)CC/C=C(\C)CC/C=C(\C)CC/C=C(\C)CC/C=C(\C)CC/C=C(\C)CCC=C(C)C)=C(C)C1=O` [CoQ10, Coenzyme Q10], the “time CoQ10 stays in the lungs at relatively high concentrations” value in data set [1] (mice, after 15 min aerosol) is on record as “up to 48 hours”. In data set [1] (setting [6]), the “Cmax relative to dispersions of cyclosporine A” value is listed as at most 75 fold and the “Cmax relative to dispersions of itraconazole” value is reported as at most 165 fold. Besides, in data set [2], the “survival and health signs” value was “all mice were alive and presenting healthy signs”. In data set [3] (approximate conversion), the “highest plasma concentration of CoQ10 reported in the literature” value was “approximately 9 μg/mL”. Moreover, the “highest plasma concentration of CoQ10 reported in the literature” value in data set [3] was 10.7 µmol/L. Moreover, in data set [4] (setting [7]), the “Dv(50)” value worked out at 29.87 μm and the span was determined as 2.282. The compound also gave a particle size in data set [4] (bulk CoQ10 powder) of 30 μm. Moreover, in data set [4] (bulk material), the “Dv(50)” value is 29.87 μm and the span is listed as 2.051. For the same compound, the “IL-12 levels in BAL supernatant” value in data set [5] (ELISA) is “not associated with a rise in IL-12 levels”. Further, the lung inflammation entry in data set [5] (mouse, in vivo) is reported as “does not cause lung inflammation”.
